From patent publication US11999727B2 (Tango Therapeutics, Inc., priority 2020, dated 2024)

Assays:
PRMT5 [1] = target: T1, PRMT5 (Homo sapiens, UniProt O14744); test: PRMT5 biochemical IC50 assay with SAM as cofactor; settings: PRMT5, SAM as cofactor; read-out: SAM IC50
T1 construct: purchased Viva (custom protein)

PRMT5 [2] = target: T1, PRMT5; test: PRMT5 biochemical IC50 assay with no cofactor; settings: PRMT5, no cofactor; read-out: No Cofactor/rel IC50
Text: Table 1 indicates IC50 values (μM) against PRMT5 for exemplary compounds in the presence of SAM as cofactor, with no cofactor, and with MTA as cofactor, respectively (columns 4-6). […] Ki values can be calculated from the IC50 values as described in the Examples section. As detailed in the Examples section, for the assay performed in the presence of SAM, IC50=Ki×1.5 (Ki=IC50/1.5).

PRMT5 [3] = target: T1, PRMT5; test: PRMT5 biochemical IC50 assay with MTA as cofactor; settings: PRMT5, MTA as cofactor; read-out: MTA IC50
[4] = system: HAP1 MTAP-intact cell line; test: SDMA in-cell western assay, HAP1 MTAP-intact; format: cell-based; settings: Homo sapiens, HAP1, SDMA in-cell western, HAP1 MTAP-intact; read-out: MTAP HAP1 intact IC50
In short: (§1)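 IC50 values come from SDMA signal quantified by in-cell western in two HAP1 lines, one with native MTAP levels and one lacking MTAP.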

[5] = system: HAP1 MTAP-deleted cell line; test: SDMA in-cell western assay, HAP1 MTAP-deleted; format: cell-based; settings: for IC50: Homo sapiens, HAP1, SDMA in-cell western, HAP1 MTAP-deleted, read-out: HAP1 MTAP deleted IC50; for MTAP intact/deleted ratio: IC50 ratio HAP1 MTAP-intact / HAP1 MTAP-deleted, SDMA in-cell western
In short: as §1

[6] = system: HAP1 MTAP-deleted cell line; test: Viability assay, MTAP-deleted cell line; format: cell-based; settings: Homo sapiens, HAP1, viability assay, MTAP-deleted cell line; read-out: HAP1 MTAP deleted viability
Text: Table 1 additionally indicates IC50 values in a viability assay for the MTAP-deleted cell line (column 10), indicating the effect of treatment with compound on cell survival.

T1 sequence (O14744 whole entry): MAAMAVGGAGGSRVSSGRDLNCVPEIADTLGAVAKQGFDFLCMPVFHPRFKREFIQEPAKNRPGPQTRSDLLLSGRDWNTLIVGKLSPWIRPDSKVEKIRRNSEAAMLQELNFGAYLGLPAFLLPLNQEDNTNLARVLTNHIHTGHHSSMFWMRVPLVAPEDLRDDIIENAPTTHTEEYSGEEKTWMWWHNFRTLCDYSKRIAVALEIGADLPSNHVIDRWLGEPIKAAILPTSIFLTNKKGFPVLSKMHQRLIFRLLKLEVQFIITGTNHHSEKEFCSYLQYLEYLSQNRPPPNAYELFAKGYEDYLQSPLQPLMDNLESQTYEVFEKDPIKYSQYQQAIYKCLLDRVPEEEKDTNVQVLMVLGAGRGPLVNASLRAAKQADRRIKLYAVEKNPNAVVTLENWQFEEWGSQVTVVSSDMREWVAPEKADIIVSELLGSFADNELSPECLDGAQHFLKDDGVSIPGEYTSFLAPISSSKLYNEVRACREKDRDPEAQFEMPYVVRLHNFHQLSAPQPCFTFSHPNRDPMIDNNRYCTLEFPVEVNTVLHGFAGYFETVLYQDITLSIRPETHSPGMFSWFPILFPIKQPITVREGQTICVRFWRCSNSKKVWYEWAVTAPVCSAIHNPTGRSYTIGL
T1 sequence (Q9BQA1 whole entry partner): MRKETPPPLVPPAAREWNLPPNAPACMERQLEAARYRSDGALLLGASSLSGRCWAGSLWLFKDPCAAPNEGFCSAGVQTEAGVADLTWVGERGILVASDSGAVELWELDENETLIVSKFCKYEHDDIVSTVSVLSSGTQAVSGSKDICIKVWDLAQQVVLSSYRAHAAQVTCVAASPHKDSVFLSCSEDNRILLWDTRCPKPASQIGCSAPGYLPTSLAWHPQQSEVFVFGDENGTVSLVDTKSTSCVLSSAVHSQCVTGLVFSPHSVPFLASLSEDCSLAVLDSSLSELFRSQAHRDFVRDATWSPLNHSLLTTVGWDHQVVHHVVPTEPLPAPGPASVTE

C[C@@H]1CC[C@@H](c2cccc(C(F)(F)F)c2)N(C(=O)C(=O)Nc2cncc(C(N)=O)c2)C1 (single isomer, unassigned) [Compound 510]
IC50 (PRMT5 [1]): > 500 nM
IC50 (PRMT5 [2]): > 500 nM
IC50 (PRMT5 [3]): > 500 nM
IC50 [4]: > 1000 nM
IC50 [5]: > 1000 nM
MTAP intact/deleted ratio [5]: C (an IC50 ratio of less than 3 fold)
IC50 [6]: > 10000 nM

C[C@H]1CC[C@H](c2ccc(C(F)(F)F)cc2)N(C(=O)C(=O)Nc2cncc(C(N)=O)c2)C1 (single isomer, unassigned) [Compound 511]
IC50 (PRMT5 [1]): 50 to 500 nM
IC50 (PRMT5 [2]): 50 to 500 nM
IC50 (PRMT5 [3]): < 50 nM
IC50 [4]: > 1000 nM
IC50 [5]: 100 to 1000 nM
MTAP intact/deleted ratio [5]: A (an IC50 ratio greater than or equal to 10 fold)
IC50 [6]: 1000 to 10000 nM

C[C@H]1CC[C@H](c2ccc(F)c(Cl)c2)N(C(=O)C(=O)Nc2cncc(C(N)=O)c2)C1 (single isomer, unassigned) [Compound 512]
IC50 (PRMT5 [1]): 50 to 500 nM
IC50 (PRMT5 [2]): 50 to 500 nM
IC50 (PRMT5 [3]): < 50 nM
IC50 [4]: > 1000 nM
IC50 [5]: < 100 nM
MTAP intact/deleted ratio [5]: A (an IC50 ratio greater than or equal to 10 fold)
IC50 [6]: 1000 to 10000 nM

C[C@@H]1CC[C@@H](c2ccc(F)c(Cl)c2)N(C(=O)C(=O)Nc2cncc(C(N)=O)c2)C1 (single isomer, unassigned) [Compound 513]
IC50 (PRMT5 [1]): > 500 nM
IC50 (PRMT5 [2]): > 500 nM
IC50 (PRMT5 [3]): > 500 nM
IC50 [4]: > 1000 nM
IC50 [5]: > 1000 nM
MTAP intact/deleted ratio [5]: C (an IC50 ratio of less than 3 fold)
IC50 [6]: > 10000 nM

COc1ncc(NC(=O)C(=O)N2C[C@H](C)CC[C@H]2c2cncs2)cc1C(N)=O (single isomer, unassigned) [Compound 514]
IC50 (PRMT5 [1]): > 500 nM
IC50 (PRMT5 [2]): > 500 nM
IC50 (PRMT5 [3]): > 500 nM
IC50 [4]: > 1000 nM
IC50 [5]: > 1000 nM
MTAP intact/deleted ratio [5]: C (an IC50 ratio of less than 3 fold)
IC50 [6]: > 10000 nM

COc1ncc(NC(=O)C(=O)N2C[C@@H](C)CC[C@@H]2c2cncs2)cc1C(N)=O (single isomer, unassigned) [Compound 516]
IC50 (PRMT5 [1]): < 50 nM
IC50 (PRMT5 [2]): < 50 nM
IC50 (PRMT5 [3]): < 50 nM
IC50 [4]: > 1000 nM
IC50 [5]: < 100 nM
MTAP intact/deleted ratio [5]: A (an IC50 ratio greater than or equal to 10 fold)
IC50 [6]: < 1000 nM

Cc1cc(NC(=O)C(=O)N2CCCC[C@H]2c2ccc3[nH]ncc3c2)cnc1N (single isomer, unassigned) [Compound 518]
IC50 (PRMT5 [1]): 50 to 500 nM
IC50 (PRMT5 [2]): 50 to 500 nM
IC50 (PRMT5 [3]): < 50 nM
IC50 [4]: > 1000 nM
IC50 [5]: < 100 nM
MTAP intact/deleted ratio [5]: A (an IC50 ratio greater than or equal to 10 fold)
IC50 [6]: < 1000 nM

Cc1cc([C@@H]2CC[C@@H](C)CN2C(=O)C(=O)Nc2cncc(C(N)=O)c2)ccn1 (single isomer, unassigned) [Compound 519]
IC50 (PRMT5 [1]): > 500 nM
IC50 (PRMT5 [2]): > 500 nM
IC50 (PRMT5 [3]): > 500 nM
IC50 [4]: > 1000 nM
IC50 [5]: > 1000 nM
MTAP intact/deleted ratio [5]: C (an IC50 ratio of less than 3 fold)
IC50 [6]: > 10000 nM

C[C@H]1CC[C@H]([C@@H]2CCC[C@@H](O)C2)N(C(=O)C(=O)Nc2cncc(C(N)=O)c2)C1 (single isomer, unassigned) [Compound 520]
IC50 (PRMT5 [1]): 50 to 500 nM
IC50 (PRMT5 [2]): 50 to 500 nM
IC50 (PRMT5 [3]): 50 to 500 nM
IC50 [4]: > 1000 nM
IC50 [5]: 100 to 1000 nM
MTAP intact/deleted ratio [5]: A (an IC50 ratio greater than or equal to 10 fold)
IC50 [6]: > 10000 nM

Cc1cc(NC(=O)C(=O)N2C[C@H](C)CC[C@H]2c2ccc(NCC(F)(F)F)cc2)cnc1N (single isomer, unassigned) [Compound 522]
IC50 (PRMT5 [1]): 50 to 500 nM
IC50 (PRMT5 [2]): 50 to 500 nM
IC50 (PRMT5 [3]): < 50 nM
IC50 [4]: > 1000 nM
IC50 [5]: 100 to 1000 nM
MTAP intact/deleted ratio [5]: A (an IC50 ratio greater than or equal to 10 fold)
IC50 [6]: 1000 to 10000 nM

CC(=O)Nc1ccc([C@H]2CC[C@H](C)CN2C(=O)C(=O)Nc2cnc(N)c(C)c2)cc1 (single isomer, unassigned) [Compound 523]
IC50 (PRMT5 [1]): > 500 nM
IC50 (PRMT5 [2]): > 500 nM
IC50 (PRMT5 [3]): > 500 nM
IC50 [4]: > 1000 nM
IC50 [5]: > 1000 nM
MTAP intact/deleted ratio [5]: C (an IC50 ratio of less than 3 fold)
IC50 [6]: > 10000 nM
